{"source": "patent US12195427B2", "about": "“MASP-2 inhibitors and methods of use” (priority 2018, dated 2025)", "key": {"Lectin Pathway": {"test_system": "Lectin Pathway", "assay": "Lectin Pathway Activation Assay in Human Serum (mannan-coated ELISA, C3c detection)", "assay_type": "biochemical", "conditions": "1% human serum", "procedure": "Microtiter ELISA plate was coated with mannan from Saccharomyces cerevisiae (Sigma-Aldrich, M7504) for overnight at 4° C. in coating buffer [15 mM Na2CO3, 35 mM NaHCO3]."}, "MASP-2 CCP2-SP": {"target": "MASP-2 CCP2-SP (Homo sapiens (Human), UniProt O00187)", "sequence (O00187 445-686)": "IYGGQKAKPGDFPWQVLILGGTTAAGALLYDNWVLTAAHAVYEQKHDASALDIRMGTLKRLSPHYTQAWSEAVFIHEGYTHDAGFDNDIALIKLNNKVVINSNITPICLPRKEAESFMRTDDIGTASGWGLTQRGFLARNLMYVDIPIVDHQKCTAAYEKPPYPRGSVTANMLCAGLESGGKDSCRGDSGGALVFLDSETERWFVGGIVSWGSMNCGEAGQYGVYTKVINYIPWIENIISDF", "sequence (O00187 364-432 partner)": "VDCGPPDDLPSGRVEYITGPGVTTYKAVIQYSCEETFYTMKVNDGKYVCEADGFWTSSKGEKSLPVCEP", "assay": "MASP-2 co-crystallization, X-ray crystallography and structure analysis (H-bonds, van der Waals contacts);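 on Ligand-pharmacophore element distance, pharmacophore element C2: distance from averaged pharmacophore element to bound ligand; missing value means element absent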;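 on Ligand-pharmacophore element distance, pharmacophore element C3: distance from averaged pharmacophore element to bound ligand; missing value means element absent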;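 on Ligand-pharmacophore element distance, pharmacophore element C4: distance from averaged pharmacophore element to bound ligand; missing value means element absent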;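 on Ligand-pharmacophore element distance, pharmacophore element C5: distance from averaged pharmacophore element to bound ligand; missing value means element absent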", "parameters": "van der Waals contact distance, MASP-2 HIS 483 atom CD2 / van der Waals contact distance, MASP-2 HIS 483 atom NE2 / van der Waals contact distance, SER 654 C to compound atom / van der Waals contact distance, SER 654 O to compound atom / van der Waals contact distance, TRP 655 C to compound atom / van der Waals contact distance, MASP-2 GLY 528 atom CA / van der Waals contact distance TRP 655 atom CZ3 / van der Waals contact distance TRP 655 atom N / van der Waals contact distance TRP 655 atom CE3 / van der Waals contact distance GLY 656 atom C / van der Waals contact distance GLY 656 atom CA / van der Waals contact distance GLY 656 atom O / van der Waals contact distance, MASP-2 TYR 607 atom CD1 / van der Waals contact distance, MASP-2 PRO 606 atom O / d(C3,CA1) / d(CA1,N1)2 / d(H4,O1) / d(H4,O2) / d(O1,O2) / d(CA1,O2) / d(CA6,O1) / d(CA6,O2) / d(CA1,C5) / d(O2,H3) / d(N2,C2) / d(CA5,N2) / d(N2,C4) / d(N2,C6) / d(N2,CA3) / d(N2,O3) / d(O4,H2): unit not given beside the values", "conditions": "for H-bond distance to MASP-2 ASP 627 atom OD2: ASP 627 OD2; for H-bond distance to MASP-2 SER 654 atom O: SER 654 O; for van der Waals contact distance, MASP-2 HIS 483 atom CD2: Table A2-1; for van der Waals contact distance, MASP-2 amino acid atom to compound atom: Table A2-9, ARG 630, AA atoms CG, CZ; for van der Waals contact distance, TRP 655 CA to compound atom: Table A2-12; for van der Waals contact distance TRP 655 atom CE3: MASP-2 TRP 655 CE3, compound atom in line below", "how_it_was_run": "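Human MASP-2 CCP2-SP, untagged or 6His-tagged, was expressed in E. coli and crystallized. Crystals were soaked with inhibitor in crystallization solution, flash-cooled in liquid nitrogen, and diffracted with synchrotron X-rays (wavelength 1.0). Structures were solved by molecular replacement from 1Q3X and partially refined.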"}, "MASP-2 (CCP1-CCP2-SP)": {"target": "MASP-2 (CCP1-CCP2-SP) (Homo sapiens (Human), UniProt O00187)", "sequence (O00187 445-686)": "as the sequence (O00187 445-686) above", "assay": "Enzymatic Assay for MASP-2 (fluorogenic substrate)", "assay_type": "biochemical"}, "[1]": {"conditions": "Table A5-1 pharmacophore: distance between elements, S2/S1 region"}, "[2]": {"conditions": "Table A5-2 pharmacophore distance, S3/S4 region"}, "[3]": {"conditions": "Table A7-1, between pharmacophore elements of the bound compound"}, "[4]": {"conditions": "Table A8-6, nearest protein atom in cell to the left"}}, "data": [{"molecule": "C[C@H](NC(=O)[C@H]1C[C@@H](c2ccccc2)CCN1)C(=O)NCc1ccc(C(=N)N)cc1", "note": "(stereo in doubt) [compound 1065]", "values": [{"measurement": "IC50", "setting": "Lectin Pathway", "value": "< 0.05", "unit": "µM"}, {"measurement": "H-bond distance to MASP-2 ASP 627 atom OD1", "setting": "MASP-2 CCP2-SP; Table A1 (H-Bonds), ASP 627 OD1", "value": 3.14}, {"measurement": "H-bond distance to MASP-2 ASP 627 atom OD2", "setting": "MASP-2 CCP2-SP; Table A1 (H-Bonds)", "value": 3.08}, {"measurement": "H-bond distance to MASP-2 GLY 656 atom N", "setting": "MASP-2 CCP2-SP; Table A1 (H-Bonds), GLY 656 N", "value": 3.31}, {"measurement": "H-bond distance to MASP-2 SER 654 atom O", "setting": "MASP-2 CCP2-SP; Table A1 (H-Bonds)", "value": 2.92}, {"measurement": "van der Waals contact distance, MASP-2 HIS 483 atom CD2", "setting": "MASP-2 CCP2-SP", "value": 3.67}, {"measurement": "van der Waals contact distance, MASP-2 amino acid atom to compound atom", "setting": "MASP-2 CCP2-SP", "value": 3.55}, {"measurement": "van der Waals contact distance, SER 654 C to compound atom", "setting": "MASP-2 CCP2-SP; Table A2-11", "value": 3.78}, {"measurement": "van der Waals contact distance, VAL 653 CG1 to compound atom", "setting": "MASP-2 CCP2-SP; Table A2-11", "value": 3.6}, {"measurement": "van der Waals contact distance, TRP 655 CA to compound atom", "setting": "MASP-2 CCP2-SP", "value": 3.46}, {"measurement": "van der Waals contact distance TRP 655 atom CE3", "setting": "MASP-2 CCP2-SP; Table A2-13", "value": 3.6}, {"measurement": "Ligand-pharmacophore element distance, pharmacophore element C2", "setting": "MASP-2 CCP2-SP; Table A4-1, element C2", "value": 0.11}, {"measurement": "Ligand-pharmacophore element distance, pharmacophore element C3", "setting": "MASP-2 CCP2-SP; Table A4-1, element C3", "value": 0}, {"measurement": "Ligand-pharmacophore element distance, pharmacophore element C4", "setting": "MASP-2 CCP2-SP; Table A4-1, element C4", "value": 0}, {"measurement": "Ligand-pharmacophore element distance, pharmacophore element C5", "setting": "MASP-2 CCP2-SP; Table A4-1, element C5", "value": 0}, {"measurement": "Ligand-pharmacophore element distance, pharmacophore element C6", "setting": "MASP-2 CCP2-SP; Table A4-1, element C6", "value": 0}, {"measurement": "Ligand-pharmacophore element distance, pharmacophore element C7", "setting": "MASP-2 CCP2-SP; Table A4-1, element C7", "value": 0}, {"measurement": "Ligand-pharmacophore element distance, pharmacophore element CA1", "setting": "MASP-2 CCP2-SP; Table A4-1, element CA1", "value": 0.88}, {"measurement": "Ligand-pharmacophore element distance, pharmacophore element CA2", "setting": "MASP-2 CCP2-SP; Table A4-1, element CA2", "value": 0.1}, {"measurement": "Ligand-pharmacophore element distance, pharmacophore element CA3", "setting": "MASP-2 CCP2-SP; Table A4-1, element CA3", "value": 0}, {"measurement": "Ligand-pharmacophore element distance, pharmacophore element CA4", "setting": "MASP-2 CCP2-SP; Table A4-1, element CA4", "value": 0}, {"measurement": "Ligand-pharmacophore element distance, pharmacophore element CA5", "setting": "MASP-2 CCP2-SP; Table A4-1, element CA5", "value": 0}, {"measurement": "Ligand-pharmacophore element distance, pharmacophore element CA6", "setting": "MASP-2 CCP2-SP; Table A4-1, element CA6", "value": 0}, {"measurement": "d(CA1,N1)", "setting": "MASP-2 CCP2-SP; [1]", "value": 3.47}, {"measurement": "d(CA1,O1)", "setting": "MASP-2 CCP2-SP; [1]", "value": 4.32}, {"measurement": "d(CA1,O2)", "setting": "MASP-2 CCP2-SP; [1]", "value": 4.20}, {"measurement": "d(H4,O1)", "setting": "MASP-2 CCP2-SP; [1]", "value": 6.39}, {"measurement": "d(H4,O2)", "setting": "MASP-2 CCP2-SP; [1]", "value": 5.35}, {"measurement": "d(O1,O2)", "setting": "MASP-2 CCP2-SP; [1]", "value": 3.30}, {"measurement": "d(N2,C2)", "setting": "MASP-2 CCP2-SP; [2]", "value": 1.40}, {"measurement": "d(N2,CA2)", "setting": "MASP-2 CCP2-SP; [2]", "value": 5.75}, {"measurement": "d(O2,H3)", "setting": "MASP-2 CCP2-SP; [2]", "value": 4.40}, {"measurement": "d(O2,N2)", "setting": "MASP-2 CCP2-SP; [2]", "value": 2.83}, {"measurement": "a(CA1, O1, O2)", "setting": "MASP-2 CCP2-SP; Table A6-1 pharmacophore angle", "value": 110.77}, {"measurement": "a(O1, O2, H4)", "setting": "MASP-2 CCP2-SP; Table A6-1 pharmacophore angle", "value": 148.95}, {"measurement": "A(N1, CA1, O1) a)", "setting": "MASP-2 CCP2-SP; Table A6-1 pharmacophore angle, all compounds with protonatable center N1 except Methyl-amino-pyridine", "value": 165.45}, {"measurement": "a(O1, O2, H3)", "setting": "MASP-2 CCP2-SP; Table A6-2 pharmacophore angle", "value": 145.76}, {"measurement": "a(O1, O2, N2)", "setting": "MASP-2 CCP2-SP; Table A6-2 pharmacophore angle", "value": 144.81}, {"measurement": "a(O2, N2, C2)", "setting": "MASP-2 CCP2-SP; Table A6-2 pharmacophore angle", "value": 124.85}, {"measurement": "a(O2, N2, CA2)", "setting": "MASP-2 CCP2-SP; Table A6-2 pharmacophore angle", "value": 154.55}, {"measurement": "Pharmacophore torsion angle a(H4, O1, O2, H3)", "setting": "MASP-2 CCP2-SP; [3]", "value": 44.38}, {"measurement": "Pharmacophore torsion angle a(H4, O1, O2, N2)", "setting": "MASP-2 CCP2-SP; [3]", "value": 129.83}, {"measurement": "Pharmacophore torsion angle a(N1, CA1, O2, H4)", "setting": "MASP-2 CCP2-SP; [3]", "value": "−89.34"}, {"measurement": "Pharmacophore torsion angle a(O1, H4, O2, CA1)", "setting": "MASP-2 CCP2-SP; [3]", "value": "−21.94"}, {"measurement": "Pharmacophore torsion angle a(O1, O2, N2, C2)", "setting": "MASP-2 CCP2-SP; [3]", "value": 124.96}, {"measurement": "Pharmacophore torsion angle a(O1, O2, N2, CA2)", "setting": "MASP-2 CCP2-SP; Table A7-2, between pharmacophore elements of the bound compound", "value": 129.88}, {"measurement": "Pharmacophore protein distance to MET_658 (first MET_658 column)", "setting": "MASP-2 CCP2-SP; Table A8-6, 6th residue column, nearest protein atom in cell to the left", "value": 3.34}, {"measurement": "Pharmacophore protein distance to MET_658 (second MET_658 column)", "setting": "MASP-2 CCP2-SP; Table A8-6, 9th residue column, nearest protein atom in cell to the left", "value": 3.79}, {"measurement": "Pharmacophore protein distance to GLY_528", "setting": "MASP-2 CCP2-SP; [4]", "value": 3.56}, {"measurement": "Pharmacophore protein distance to PHE_529", "setting": "MASP-2 CCP2-SP; [4]", "value": 2.70}, {"measurement": "Pharmacophore protein distance to PRO_608", "setting": "MASP-2 CCP2-SP; [4]", "value": 3.75}, {"measurement": "Pharmacophore protein distance to SER_611", "setting": "MASP-2 CCP2-SP; [4]", "value": 2.57}, {"measurement": "Pharmacophore protein distance to TRP_655", "setting": "MASP-2 CCP2-SP; Table A8-6, pharmacophore elements C6, CA3, O3, H1, nearest protein atom in cell to the left", "value": 3.87}]}, {"molecule": "C[C@H](NC(=O)[C@H](N)CCc1ccccc1)C(=O)NCc1ccc(N)nc1", "note": "[compound 1007]", "values": [{"measurement": "H-bond distance to MASP-2 ASP 627 atom OD2", "setting": "MASP-2 CCP2-SP; Table A1 (H-Bonds)", "value": 3.27}, {"measurement": "H-bond distance to MASP-2 SER 628 atom O", "setting": "MASP-2 CCP2-SP; Table A1 (H-Bonds), SER 628 O", "value": 2.59}, {"measurement": "H-bond distance to MASP-2 SER 654 atom O", "setting": "MASP-2 CCP2-SP; Table A1 (H-Bonds)", "value": 2.94}, {"measurement": "H-bond distance to MASP-2 SER 657 atom O", "setting": "MASP-2 CCP2-SP; Table A1 (H-Bonds), SER 657 O", "value": 2.88}, {"measurement": "van der Waals contact distance, MASP-2 HIS 483 atom CD2", "setting": "MASP-2 CCP2-SP", "value": 3.38}, {"measurement": "van der Waals contact distance, MASP-2 PHE 529 atom CD1", "setting": "MASP-2 CCP2-SP; Table A2-3", "value": 3.83}, {"measurement": "van der Waals contact distance, MASP-2 PHE 529 atom CZ", "setting": "MASP-2 CCP2-SP; Table A2-3", "value": 3.82}, {"measurement": "van der Waals contact distance, MASP-2 TYR 607 atom CD1", "setting": "MASP-2 CCP2-SP; Table A2-4", "value": 3.84}, {"measurement": "van der Waals contact distance, MASP-2 amino acid atom to compound atom", "setting": "MASP-2 CCP2-SP", "value": 3.61}, {"measurement": "van der Waals contact distance, TRP 655 CA to compound atom", "setting": "MASP-2 CCP2-SP", "value": 3.31}, {"measurement": "van der Waals contact distance GLY 656 atom C", "setting": "MASP-2 CCP2-SP; Table A2-13, MASP-2 GLY 656 C", "value": 3.74}, {"measurement": "van der Waals contact distance TRP 655 atom CE3", "setting": "MASP-2 CCP2-SP; Table A2-13", "value": 3.69}, {"measurement": "van der Waals contact distance TRP 655 atom CZ3", "setting": "MASP-2 CCP2-SP; Table A2-13, MASP-2 TRP 655 CZ3", "value": 3.78}, {"measurement": "van der Waals contact distance GLY 656 atom N", "setting": "MASP-2 CCP2-SP; Table A2-14, MASP-2 GLY 656 N", "value": 3.71}, {"measurement": "van der Waals contact distance GLY 656 atom O", "setting": "MASP-2 CCP2-SP; Table A2-14, MASP-2 GLY 656 O", "value": 3.85}, {"measurement": "van der Waals contact distance SER 657 atom C", "setting": "MASP-2 CCP2-SP; Table A2-14, MASP-2 SER 657 C, columns c12-c13 (inferred)", "value": 3.87}, {"measurement": "Ki", "setting": "MASP-2 (CCP1-CCP2-SP)", "value": "< 0.5", "unit": "µM"}]}]}
